Assay results published in PMC7831015, “Evaluation of the Hemocompatibility and Anticancer Potential of Poly(ε-Caprolactone) and Poly(3-Hydroxybutyrate) Microcarriers with Encapsulated Chrysin” (Pharmaceutics, 2021).

Assays:
[1] = test system: MDA-MB-231 human breast cancer cells; assay: MTT cell viability assay; assay type: cell-based; conditions: MDA-MB-231, 48 h, for MCs expressed as encapsulated chrysin content, read-out: IC50 (inhibitory concentration of chrysin for 50% viability)
Experimental: Epithelial human breast cancer MDA-MB-231 cells were grown in Dulbecco’s Modified Eagle′s—Medium (DMEM) growth medium (pH 7.4) supplemented with 10% Fetal Bovine Serum (FBS) and 50 µg·mL^−1 gentamycin at 37 °C in a 5% humidified CO2 incubator.
In the present study, the cell viability of MDA-MB-231 breast cancer line was evaluated via the MTT assay. The method relies on the conversion of the yellow 3-(4,5-dimethylthiazol-2-yl)-2,5-diphenyl tetrazolium bromide (MTT) to purple formazan crystals. The reduction of MTT is catalyzed by the mitochondrial dehydrogenase enzyme and is therefore a measure for cell viability. MDA-MB-231 cells were exposed to free chrysin, ChrPCL/PVAMCs, or ChrPHB/PVAMCs in their exponential phase of growth. More specifically, in a 96-well plate (Corning, NY, USA), a number of 1 × 10^4 cells/well were seeded, and after 24 h (80% confluency) they were treated with different concentrations of ChrPCL/PVAMCs or ChrPHB/PVAMCs ranging between 0–400 µg·mL^−1. Due to the different loading capacity of chrysin in each type of MCs, free chrysin (dissolved in DMSO) was added accordingly, in equal concentrations (µM), with the encapsulated chrysin in the MCs, as estimated in Section 3.5. […] Finally, a Synergy HTX BioTEK plate reader (with a reference wavelength of 630 nm) was used to determine the absorbance measurement at 545 nm. […]

human blood samples = assay: Blood profile analysis (hematological parameters); assay type: cell-based; conditions: human blood, 5, 80 and 200 µg·mL^−1, 37 °C, 1 h
Experimental: (§1) Human blood samples were freshly collected from ten healthy volunteers and divided into tubes containing the anticoagulant agent ethylenediamine tetraacetic acid (EDTA), according to the protocols approved by the National Institute of Health and the Food and Drug Administration.
The blood profile analysis was performed using an automatic hematological analyzer Beckman Coulter ACT 5 Diff OV, (Beckman Coulter International S.A., Nyon, Switzerland) for the determination of different hematological parameters, such as red blood cells (RBCs) count ([…]), hemoglobin (HGB) g·dL^−1), hematocrit (HCT) (%), mean corpuscular volume (MCV) (in femtoliters, fl), mean corpuscular hemoglobin (MCH) (pg), mean corpuscular hemoglobin concentration (MCHC), red cell distribution width (RDW), white blood cells (WBCs) (10^9/L), neutrophils (NE) (%), lymphocytes (LY) (%), monocytes (MO) (%), eosinophils (EO) (%), basophils (BA) (%), and platelets (PLTs) (10^9/L), after exposure to free chrysin, ChrPCL/PVAMCs, or ChrPHB/PVAMCs, and without exposure to any agent. Briefly, the sample preparation was performed as follows: A 100 µL sample of whole blood was added to 900 µL of PBS. Then, either chrysin, ChrPCL/PVAMCs, or ChrPHB/PVAMCs were added to this diluted blood to achieve three concentrations: low, high, and very high (5, 80, and 200 µg·mL^−1, respectively). […]

Hemolysis assay = assay type: cell-based, human; conditions: human, washed human red blood cells (RBC suspension), pH 7.2, 24 h, 37 °C, free chrysin solution in DMSO (5%), read-out: Percentage of Hemolysis
Experimental: as §1
(§2) The hemocompatibility of free chrysin and the produced micro-formulations was evaluated via the hemolysis assay performed using a biochemical analyzer Konelab 30, Thermo Scientific. The experimental procedure was as follows: Whole blood samples were centrifuged for 10 min at 1500 rpm to remove plasma. The obtained cell pellets were washed three times with sterile PBS (10 mM, pH 7.2) to separate the red blood cells (RBCs) from other blood components, such as the white blood cells, plasma proteins, and excess antibodies, centrifuged and finally re-suspended at 5 mL PBS. The hemolysis assay was performed by adding 100 µL of the RBC suspension to 900 µL of PBS, containing several concentrations (5, 20, 40, 60, 80, 100, 200, 300, 400, 500 µg·mL^−1) of free chrysin, ChrPCL/PVAMCs, or ChrPHB/PVAMCs. The positive (+) control sample of hemolysis used (100% hemolysis) consisted of 900 µL of ultrapure water and 100 µL of washed RBCs. The negative (−) control sample (0% hemolysis) consisted of 900 µL PBS and 100 µL of washed RBCs. PBS and PBS containing either free chrysin, ChrPCL/PVAMCs, or ChrPHB/PVAMCs were used as blank samples. All samples were incubated for 24 h at 37 °C, under agitation at 120 rpm. After incubation, they were centrifuged at 700 rpm for 5 min, and the absorbance of the supernatant was measured at 541 nm. The % hemolysis was calculated after subtracting the blank values, and by setting the control (+) value as 100% of hemolysis. The absorbance was transformed to hemolysis percentage using the following equation: Percentage of hemolysis (%)=ODSample − ODNegative control/ODPositive control − ODNegative control where OD stands for Optical density.

human RBCs = assay: Hemolysis assay; assay type: cell-based
Experimental: as §1, §2

**Q.** For `O=c1cc(-c2ccccc2)oc2cc(O)cc(O)c12` [chrysin, 5,7-dihydroxyflavone], which IC50 [1] is on record?
**A.** Its IC50 is 112 µM.

**Q.** And the “PLT values compared to negative control” value (human blood samples)?
**A.** The value was “significant decrease”.

**Q.** And the “hematological parameters (RBCs, HGB, HCT, MCV, MCH, MCHC, RDW, WBCs, NE, LY, MO, EO, BA) compared to negative control” value (human blood samples)?
**A.** Its value is “did not display significant deviation”.

**Q.** What about the hemolysis at 24 h, 5 µg·mL^−1 (Hemolysis assay; 5 µg·mL^−1) of the same compound?
**A.** The hemolysis at 24 h, 5 µg·mL^−1 was 1.2%.

**Q.** What about the hemolysis at 24 h, 20 µg·mL^−1 (Hemolysis assay; 20 µg·mL^−1) of the same compound?
**A.** The hemolysis at 24 h, 20 µg·mL^−1 was 2.1%.

**Q.** And the hemolysis at 24 h, 40 µg·mL^−1 (Hemolysis assay; 40 µg·mL^−1)?
**A.** The hemolysis at 24 h, 40 µg·mL^−1 was 2.7%.

**Q.** What about the hemolysis at 24 h, 60 µg·mL^−1 (Hemolysis assay; 60 µg·mL^−1) of the same compound?
**A.** The hemolysis at 24 h, 60 µg·mL^−1 was 3%.

**Q.** What about the hemolysis at 24 h, 80 µg·mL^−1 (Hemolysis assay; 80 µg·mL^−1) of the same compound?
**A.** The hemolysis at 24 h, 80 µg·mL^−1 was 3.5%.

**Q.** And the hemolysis at 24 h, 100 µg·mL^−1 (Hemolysis assay; 100 µg·mL^−1)?
**A.** The hemolysis at 24 h, 100 µg·mL^−1 was 6.8%.

**Q.** And the hemolysis at 24 h, 200 µg·mL^−1 (Hemolysis assay; 200 µg·mL^−1)?
**A.** The hemolysis at 24 h, 200 µg·mL^−1 was 7%.

**Q.** What about the hemolysis at 24 h, 300 µg·mL^−1 (Hemolysis assay; 300 µg·mL^−1) of the same compound?
**A.** The hemolysis at 24 h, 300 µg·mL^−1 was 7.3%.

**Q.** What about the hemolysis at 24 h, 400 µg·mL^−1 (Hemolysis assay; 400 µg·mL^−1) of the same compound?
**A.** Its hemolysis at 24 h, 400 µg·mL^−1 is 7.9%.

**Q.** And the hemolysis at 24 h, 500 µg·mL^−1 (Hemolysis assay; 500 µg·mL^−1)?
**A.** The hemolysis at 24 h, 500 µg·mL^−1 was 8.2%.

**Q.** And the “hemoglobin release from RBCs (micrographs)” value (human RBCs; 500 µg·mL^−1)?
**A.** Its value is “hemoglobin release from RBCs is obvious”.

**Q.** And the hemolytic activity (human RBCs; concentrations between 100 and 500 µg·mL^−1, diluted in 5% DMSO)?
**A.** Its hemolytic activity is “greater than 5%”.
